# Tests used:
# JAK1 = target: T1, JAK1 (Homo sapiens, UniProt P23458); assay: Millipore Upstate KinaseProfiler screening, JAK1 catalytic activity; format: biochemical; conditions: Table 5; read-out: Inhibition (IC50%) of catalytic activity of JAK 1
# T1 construct: purchased Millipore Upstate KinaseProfiler
# JAK2 = target: T2, JAK2 (Homo sapiens, UniProt O60674); assay: Millipore Upstate KinaseProfiler screening, JAK2 catalytic activity; format: biochemical; conditions: Table 5; read-out: Inhibition (IC50%) of catalytic activity of JAK 2
# T2 construct: purchased Millipore Upstate KinaseProfiler
# T2 sequence (O60674 whole entry): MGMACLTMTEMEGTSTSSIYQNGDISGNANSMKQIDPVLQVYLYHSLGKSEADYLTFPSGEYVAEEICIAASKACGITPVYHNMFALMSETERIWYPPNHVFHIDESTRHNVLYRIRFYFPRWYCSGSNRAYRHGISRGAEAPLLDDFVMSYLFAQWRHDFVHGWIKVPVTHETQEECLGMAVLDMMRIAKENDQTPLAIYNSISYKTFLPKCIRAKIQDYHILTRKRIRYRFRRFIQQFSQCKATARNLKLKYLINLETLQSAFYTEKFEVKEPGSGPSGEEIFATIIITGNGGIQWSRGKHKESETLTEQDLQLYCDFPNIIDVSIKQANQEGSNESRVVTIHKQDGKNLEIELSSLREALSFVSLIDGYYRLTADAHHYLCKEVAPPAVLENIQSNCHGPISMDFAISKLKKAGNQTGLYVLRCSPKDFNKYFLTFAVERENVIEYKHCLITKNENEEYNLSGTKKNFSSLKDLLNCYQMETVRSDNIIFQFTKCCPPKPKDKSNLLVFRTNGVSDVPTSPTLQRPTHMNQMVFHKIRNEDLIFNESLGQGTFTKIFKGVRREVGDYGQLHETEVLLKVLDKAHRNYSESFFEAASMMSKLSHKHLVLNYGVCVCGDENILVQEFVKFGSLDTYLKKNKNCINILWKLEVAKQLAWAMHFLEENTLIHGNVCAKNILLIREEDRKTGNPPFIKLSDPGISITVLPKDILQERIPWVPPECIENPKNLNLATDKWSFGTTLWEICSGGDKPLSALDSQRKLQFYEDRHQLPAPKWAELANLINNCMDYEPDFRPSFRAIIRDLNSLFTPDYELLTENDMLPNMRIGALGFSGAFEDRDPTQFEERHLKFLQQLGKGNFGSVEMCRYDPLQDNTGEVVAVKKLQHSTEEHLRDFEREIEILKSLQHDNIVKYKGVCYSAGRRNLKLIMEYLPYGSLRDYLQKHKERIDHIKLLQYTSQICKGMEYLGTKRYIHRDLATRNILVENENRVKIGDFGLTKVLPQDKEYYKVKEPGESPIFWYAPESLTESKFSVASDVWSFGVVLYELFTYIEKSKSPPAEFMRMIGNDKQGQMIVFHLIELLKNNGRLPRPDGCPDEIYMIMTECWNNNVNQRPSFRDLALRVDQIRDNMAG
# Purified human JAK3 = target: T3, Purified human JAK3 (Homo sapiens, UniProt P52333); assay: Millipore Upstate KinaseProfiler screening, JAK3 catalytic activity; format: biochemical; conditions: for IC50: Table 5, read-out: Inhibition (IC50%) of catalytic activity of JAK 3; for inhibition at 0.3 µM: 0.3 μM compound
# T3 construct: purchased Millipore Upstate KinaseProfiler; host or cells: insect cells
# T3 sequence (P52333 781-1124 limits assumed): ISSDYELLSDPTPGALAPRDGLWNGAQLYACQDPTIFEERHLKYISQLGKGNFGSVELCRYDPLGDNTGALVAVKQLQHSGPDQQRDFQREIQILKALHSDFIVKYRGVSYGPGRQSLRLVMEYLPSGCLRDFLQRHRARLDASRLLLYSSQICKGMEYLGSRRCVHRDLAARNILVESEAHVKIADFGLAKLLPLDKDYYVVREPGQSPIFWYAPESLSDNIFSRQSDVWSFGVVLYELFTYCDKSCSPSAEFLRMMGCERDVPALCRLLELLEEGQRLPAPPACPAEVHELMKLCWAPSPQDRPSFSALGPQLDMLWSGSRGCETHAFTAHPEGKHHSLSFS
# Description: This assay is a direct measurement of the effect of compound on the catalytic activity of JAK3. Purified human JAK3 (GenBank AF513860) sequence (residue 781-C terminus) was obtained from insect cells. The catalytic hydrolysis of ATP is measured using a radiometric filter binding method. Incubation of kinase with ^33-[P]ATP and substrate leads to incorporation of ^33[P] into the substrate which can then be separated from the other reaction components by filtration. Assays were performed using 10 μM ATP and in the absence or presence of 1, 0.3, or 0.1 μM compound. Activity was expressed as % of inhibition of control.
# In the table below, activity in the Jak assays is provided as follows: +++++=IC50<0.0010 μM; ++++=0.0010 μM<IC50<0.010 μM, +++=0.010 μM<IC50<0.10 μM, ++=0.10 μM<IC50<1 μM, +=IC50>1 μM.
# [1] = target: T4, full length active recombinant SYK enzyme (Homo sapiens, UniProt P43405); assay: Inhibition of Syk tyrosine phosphorylation activity (LANCE TR-FRET); format: biochemical; conditions: Table 4; 1 nM SYK, 100 μM ATP; read-out: syk IC50
# T4 construct: full length active recombinant SYK enzyme (Millipore, Calif.); purchased Millipore
# Procedure, shortened: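 The reaction is quenched with buffer holding Eu-anti-phosphotyrosine and streptavidin-APC, and detection runs 1 hr at room temperature. TR-FRET is read and IC50s come from non-linear regression.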
# [2] = tested on: human platelet-rich plasma (PRP); assay: Inhibition of Convulxin-mediated platelet aggregation in vitro (PRP); format: cell-based; conditions: Table 4, Convulxin-induced aggregation in human PRP, unit inferred
# Description: The ability for candidate molecules to inhibit syk-mediated platelet functions are tested by measuring the inhibition the GPVI-specific agonist Convulxin-induced human platelet calcium-mobilization or aggregation. Calcium-mobilization is assessed in human washed platelets in a 96-well microtiter format.
# Inhibition of Convulxin-Mediated Platelet Aggregation In Vitro
# Platelet-rich plasma (PRP) is prepared by centrifugation of whole blood at 160×g for 20 minutes at room temperature. The PRP layer is removed, transferred to a new tube, and the platelet count is adjusted, if advantageous, to achieve a platelet concentration of ˜3×10^8 platelets/ml using platelet-poor plasma (PPP). PPP is prepared by centrifugation of the remaining blood sample (after removal of PRP) for 20 minutes at 800×g. This preparation of PRP can subsequently be used for aggregation assays in either a 96-well plate or standard cuvette aggregometry.
# Inhibition of Convulxin-induced aggregation is determined in 96-well flat-bottom microtiter plates using a microtiter plate shaker and plate reader similar to the procedure described by Frantantoni et al., Am. J. Clin. Pathol. […] All steps are performed at room temperature. For 96-well plate aggregation using platelet-rich plasma (PRP), the total reaction volume of 0.2 ml/well includes 190 μl of PRP (˜3×10^8 platelets/ml, see above), and 5 μl of either serial dilution of test compounds in 30% DMSO or buffer (for control wells). After 20 minutes preincubation at room temperature 5 μl of 320 ng/ml Convulxin agonist solution is added to each well to give a final concentration of 8 ng/ml Convulxin. The plates are then agitated for 5 min on a microtiter plate shaker and the 5 minute reading is obtained in the microtitre plate reader (Softmax, Molecular Devices, Menlo Park, Calif.). Aggregation is calculated from the decrease of OD at 650 nm at t=5 minutes. IC50s were derived by non-linear regression analysis.
# Inhibition of Convulxin-induced aggregation was also determined for cuvette light transmittance aggregation assays, serial dilutions (1:2) of test compounds were prepared in 30% DMSO in a 96 well V-bottom plate (final DMSO concentration in the cuvette was 0.3%). […] IC50s were derived by non-linear regression analysis.
# [3] = tested on: SUDHL-4 and SUDHL-6 cells; conditions: Chen, Monti et al. 2008; cited from earlier work
# [4] = tested on: Toledo and Karpas-422 cell lines; conditions: Chen, Monti et al. 2008; cited from earlier work
# SUDHL-6 and Toledo cells = assay: Caspase 3 apoptosis assay; format: cell-based, human; conditions: 1 μM, 72 h treatment
# Description: Induction of apoptosis in non-Hodgkin's lymphoma B cell lines SUDHL-4, SUDHL-6, and Toledo was assessed by measuring the apoptotis marker Caspase 3. Cells were incubated with 1, 3, or 10 μM compound for 24, 48, and 72 hours. At the conclusion of each time point, cells were processed for flow cytometry analysis using the Monoclonal Rabbit Anti-Active Caspase-3 Antibody Kit and related protocols (BD Pharmingen). Data from two independent experiments are presented in Tables 5A and 5B, representing the percent of total cells undergoing apoptosis following incubation with compounds under the indicated conditions.
# Induction of apoptosis was measured using the PE-conjugated monoclonal active caspase-3 antibody apoptosis kit (Becton Dickenson) following the supplied protocol. Cells were suspended in growth media (0.5×10^6 cells/ml) and treated with the indicated concentrations of each Syk inhibitor or vehicle control for 24, 48, or 72 hours prior to FACS analysis. The MTT (3-(4,5-Dimethylthiazol-2-yl)-2,5-diphenyltetrazolium bromide, a tetrazole) assay […] was used as a measure of cell viability and growth, following protocols supplied by the manufacturer. Cells were treated with the indicated concentrations of each Syk inhibitor or vehicle control for 72 hours.
# Selective inhibition of Syk was sufficient to induce apoptosis in “BCR-type” NHL cell lines.
# T1 sequence (P23458 whole entry): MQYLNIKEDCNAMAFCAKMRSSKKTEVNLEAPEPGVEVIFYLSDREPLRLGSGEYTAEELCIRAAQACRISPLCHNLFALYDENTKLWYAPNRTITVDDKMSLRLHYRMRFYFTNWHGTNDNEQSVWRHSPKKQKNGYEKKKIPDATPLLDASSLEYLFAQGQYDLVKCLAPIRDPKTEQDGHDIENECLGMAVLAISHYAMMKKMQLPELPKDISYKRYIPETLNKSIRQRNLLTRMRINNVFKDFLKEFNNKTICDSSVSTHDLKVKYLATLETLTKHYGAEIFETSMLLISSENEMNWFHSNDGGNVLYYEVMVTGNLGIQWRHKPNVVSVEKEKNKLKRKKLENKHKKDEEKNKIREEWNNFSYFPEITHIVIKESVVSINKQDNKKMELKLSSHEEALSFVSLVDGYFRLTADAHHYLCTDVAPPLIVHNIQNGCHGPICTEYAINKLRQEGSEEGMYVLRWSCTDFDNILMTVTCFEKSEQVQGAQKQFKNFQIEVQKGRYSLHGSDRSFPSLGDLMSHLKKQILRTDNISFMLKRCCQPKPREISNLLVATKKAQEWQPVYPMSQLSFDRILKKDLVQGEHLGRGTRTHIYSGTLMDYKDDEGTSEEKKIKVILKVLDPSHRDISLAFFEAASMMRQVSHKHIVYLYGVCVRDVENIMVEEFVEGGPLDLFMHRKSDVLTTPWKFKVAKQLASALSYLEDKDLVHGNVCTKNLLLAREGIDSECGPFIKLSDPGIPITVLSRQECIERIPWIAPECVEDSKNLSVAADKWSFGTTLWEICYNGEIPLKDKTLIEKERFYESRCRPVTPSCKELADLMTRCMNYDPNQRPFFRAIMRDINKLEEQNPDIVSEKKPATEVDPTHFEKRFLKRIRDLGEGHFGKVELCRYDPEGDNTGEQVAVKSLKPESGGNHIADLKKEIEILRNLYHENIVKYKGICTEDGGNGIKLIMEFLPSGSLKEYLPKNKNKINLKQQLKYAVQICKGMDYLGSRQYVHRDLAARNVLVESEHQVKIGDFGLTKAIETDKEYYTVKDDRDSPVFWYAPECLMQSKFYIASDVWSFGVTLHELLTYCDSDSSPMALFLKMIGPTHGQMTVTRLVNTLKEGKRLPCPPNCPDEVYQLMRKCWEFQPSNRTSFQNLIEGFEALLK
IC50 (JAK1),IC50 (JAK2),IC50 (Purified human JAK3),SMILES,further results
> 1000 nM,100 to 1000 nM,100 to 1000 nM,CS(=O)(=O)N1CCN(c2ccc(Nc3nc(Nc4cccc(S(N)(=O)=O)c4)c4cc[nH]c4n3)cc2)CC1,
> 1000 nM,100 to 1000 nM,100 to 1000 nM,Cc1c[nH]c2nc(Nc3ccc4cn[nH]c4c3)nc(NC3CCC3)c12,
,,,CN(C)C(=O)C1CCN(c2ccc(Nc3nc(NC4CC4)c4cc[nH]c4n3)cc2)CC1,inhibition at 0.3 µM (Purified human JAK3; 10 μM ATP): 82%
,,,"CC(=O)N1CCN(c2ccc(Nc3ncc(F)c(N4CCC(CN)CC4)n3)cc2)CC1 [Example 18, 1-(4-(4-(4-(4-(aminomethyl)piperidin-1-yl)-5-fluoropyrimidin-2-ylamino)phenyl)piperazin-1-yl)ethanone]",IC50 [1]: 10 to 100 nM; IC50 [2]: 195 nM
,,,"CC(=O)N(C)c1ccc(Nc2ncc(F)c(N3CCC(CN)CC3)n2)cc1 [Example 29, N-(4-(4-(4-(aminomethyl)piperidin-1-yl)-5-fluoropyrimidin-2-ylamino)phenyl)-N-methylacetamide]",IC50 [1]: 10 to 100 nM; IC50 [2]: 316 nM
,,,"NCC1CCN(c2nc(Nc3ccc(C(N)=O)cc3)ncc2F)CC1 [Example 31, 4-(4-(4-(aminomethyl)piperidin-1-yl)-5-fluoropyrimidin-2-ylamino)benzamide]",IC50 [1]: 10 to 100 nM; IC50 [2]: 346 nM
,,,"NCC1CCN(c2nc(Nc3ccc4c(c3)CCC(=O)N4)ncc2F)CC1 [Example 33, 6-(4-(4-(aminomethyl)piperidin-1-yl)-5-fluoropyrimidin-2-ylamino)-3,4-dihydroquinolin-2(1H)-one]",IC50 [1]: 10 to 100 nM; IC50 [2]: 336 nM
,,,COc1cc(Nc2ncc(F)c(Nc3ccc4c(n3)NC(=O)C(C)(C)O4)n2)cc(OC)c1OC [Example R406],Sensitivity to Syk inhibition by R406 [3]: sensitive; Sensitivity to R406 [4]: insensitive
,,,CCCCCCCCCCCCCC(=O)O[C@@H]1[C@@H](C)[C@@]2(O)[C@@H](C=C(CO)C[C@]3(O)C(=O)C(C)=C[C@@H]23)[C@@H]2C(C)(C)[C@]12OC(C)=O [PMA],Induction of apoptosis (SUDHL-6 and Toledo cells): equally sensitive to induction of apoptosis
100 to 1000 nM,100 to 1000 nM,100 to 1000 nM,c1cc2c(NC3CC3)nc(Nc3ccc4cn[nH]c4c3)nc2[nH]1 [drawing 204],
> 1000 nM,> 1000 nM,> 1000 nM,CC(=O)c1c[nH]c2nc(Nc3ccc4cn[nH]c4c3)nc(NC3CC3)c12 [drawing 207],
10 to 100 nM,10 to 100 nM,10 to 100 nM,N#Cc1c[nH]c2nc(Nc3ccc4c(c3)CCC(=O)N4)nc(NC3CC3)c12 [drawing 209],
10 to 100 nM,10 to 100 nM,10 to 100 nM,N#Cc1c[nH]c2nc(Nc3ccc(S(N)(=O)=O)cc3)nc(NC3CC3)c12 [drawing 210],
> 1000 nM,100 to 1000 nM,> 1000 nM,NC(=O)c1c[nH]c2nc(Nc3ccc4c(c3)CCC(=O)N4)nc(NC3CC3)c12 [drawing 211],
10 to 100 nM,10 to 100 nM,10 to 100 nM,N#CCC(=O)N1CCCC(Nc2nc(Nc3ccc(C(N)=O)cc3)nc3[nH]ccc23)C1 (centres unmarked) [drawing 212],
,,,c1cc2c(NC3CC3)nc(Nc3ccc4cn[nH]c4c3)nc2[nH]1 [drawing 213],"inhibition at 0.3 µM (Purified human JAK3; 10 μM ATP): 41%; inhibition at 1 µM (Purified human JAK3; 1 μM compound, 10 μM ATP): 77%"

SMILES,IC50 (JAK1),IC50 (JAK2),IC50 (Purified human JAK3),further results
CC(=O)N1CCN(c2ccc(Nc3nc(N4CCC(CN)CC4)c4cc[nH]c4n3)cc2)CC1 [drawing 208],100 to 1000 nM,100 to 1000 nM,100 to 1000 nM,
